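Values below derive from 48-hour exposures of cells grown in 96-well plates, with endpoints linearly interpolated between the two concentrations bracketing the appropriate inhibition level. Here, GI50 denotes the concentration required for 50% inhibition of growth. Definition used: TGI = concentration required for complete inhibition of growth.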
Columns and labels:
Assay in all cases: NCI tumour cell line growth inhibition, 48 h
NCI/ADR-RES ovarian = tested on: NCI/ADR-RES ovarian
CAKI-1 renal = tested on: CAKI-1 renal
LOX IMVI melanoma = tested on: LOX IMVI melanoma
UACC-62 melanoma = tested on: UACC-62 melanoma
SK-MEL-28 melanoma = tested on: SK-MEL-28 melanoma
NCI-H23 lung = tested on: NCI-H23 lung
UO-31 renal = tested on: UO-31 renal
MCF7 breast = tested on: MCF7 breast
MDA-MB-435 = tested on: MDA-MB-435
786-0 renal = tested on: 786-0 renal
SF-539 CNS = tested on: SF-539 CNS
A549 NSCLC = tested on: A549 NSCLC
MOLT-4 leukemia = tested on: MOLT-4 leukemia
U251 CNS = tested on: U251 CNS
MDA-MB-231 breast = tested on: MDA-MB-231 breast
IGROV1 ovarian = tested on: IGROV1 ovarian
MALME-3M melanoma = tested on: MALME-3M melanoma
EKVX NSCLC = tested on: EKVX NSCLC
OVCAR-3 ovarian = tested on: OVCAR-3 ovarian
HT29 colon = tested on: HT29 colon
SK-OV-3 ovarian = tested on: SK-OV-3 ovarian
OVCAR-8 ovarian = tested on: OVCAR-8 ovarian
NCI-H460 lung = tested on: NCI-H460 lung
M14 melanoma = tested on: M14 melanoma
UACC-257 melanoma = tested on: UACC-257 melanoma
HCT-116 colon = tested on: HCT-116 colon
MDA-MB-468 breast = tested on: MDA-MB-468 breast
SNB-19 CNS = tested on: SNB-19 CNS
HS 578T breast = tested on: HS 578T breast
SN12C renal = tested on: SN12C renal
HCT-15 colon = tested on: HCT-15 colon
HCC-2998 colon = tested on: HCC-2998 colon
SNB-75 CNS = tested on: SNB-75 CNS
A498 renal = tested on: A498 renal
KM12 colon = tested on: KM12 colon
SK-MEL-2 melanoma = tested on: SK-MEL-2 melanoma
HOP-92 NSCLC = tested on: HOP-92 NSCLC
HL-60(TB) leukemia = tested on: HL-60(TB) leukemia
NCI-H522 lung = tested on: NCI-H522 lung
ACHN renal = tested on: ACHN renal
COLO 205 colon = tested on: COLO 205 colon
RXF 393 renal = tested on: RXF 393 renal
PC-3 prostate = tested on: PC-3 prostate
TK-10 renal = tested on: TK-10 renal
T-47D breast = tested on: T-47D breast
NCI-H226 lung = tested on: NCI-H226 lung
SK-MEL-5 melanoma = tested on: SK-MEL-5 melanoma
SW-620 colon = tested on: SW-620 colon
SF-295 CNS = tested on: SF-295 CNS
BT-549 breast = tested on: BT-549 breast
OVCAR-5 ovarian = tested on: OVCAR-5 ovarian

Structure (SMILES): O/N=C(\CSc1nnc(-c2c[nH]c3ccccc23)n1-c1ccccc1)c1ccc(Br)cc1
- GI50 (NCI/ADR-RES ovarian): 1.9 µM
- TGI (NCI/ADR-RES ovarian): 3.91 µM
- GI50 (CAKI-1 renal): 2.63 µM
- TGI (CAKI-1 renal): 8.1 µM
- GI50 (LOX IMVI melanoma): 1.71 µM
- TGI (LOX IMVI melanoma): 3.12 µM
- GI50 (UACC-62 melanoma): 1.77 µM
- TGI (UACC-62 melanoma): 3.74 µM
- GI50 (SK-MEL-28 melanoma): 3.4 µM
- TGI (SK-MEL-28 melanoma): 12.5 µM
- GI50 (NCI-H23 lung): 4.31 µM
- TGI (NCI-H23 lung): 19.6 µM
- GI50 (UO-31 renal): 2.29 µM
- TGI (UO-31 renal): 7.81 µM
- GI50 (MCF7 breast): 3.49 µM
- TGI (MCF7 breast): 15.3 µM
- GI50 (MDA-MB-435): 2.01 µM
- TGI (MDA-MB-435): 3.89 µM
- GI50 (786-0 renal): 6.85 µM
- TGI (786-0 renal): 27 µM
- GI50 (SF-539 CNS): 4.04 µM
- TGI (SF-539 CNS): 14.2 µM
- GI50 (A549 NSCLC): 2.49 µM
- TGI (A549 NSCLC): 6.66 µM
- GI50 (MOLT-4 leukemia): 2.09 µM
- TGI (MOLT-4 leukemia): 4.8 µM
- GI50 (U251 CNS): 4.38 µM
- TGI (U251 CNS): 17.3 µM
- GI50 (MDA-MB-231 breast): 1.71 µM
- TGI (MDA-MB-231 breast): 3.26 µM
- GI50 (IGROV1 ovarian): 3.41 µM
- TGI (IGROV1 ovarian): 11.7 µM
- GI50 (MALME-3M melanoma): 3.22 µM
- TGI (MALME-3M melanoma): 14.3 µM
- GI50 (EKVX NSCLC): 2.6 µM
- TGI (EKVX NSCLC): 9.09 µM
- GI50 (OVCAR-3 ovarian): 4.98 µM
- TGI (OVCAR-3 ovarian): 23.8 µM
- GI50 (HT29 colon): 2.23 µM
- TGI (HT29 colon): 5.03 µM
- GI50 (SK-OV-3 ovarian): 2.53 µM
- TGI (SK-OV-3 ovarian): 6.03 µM
- GI50 (OVCAR-8 ovarian): 2.45 µM
- TGI (OVCAR-8 ovarian): 6.5 µM
- GI50 (NCI-H460 lung): 3.53 µM
- TGI (NCI-H460 lung): 12.9 µM
- GI50 (M14 melanoma): 3.4 µM
- TGI (M14 melanoma): 17.6 µM
- GI50 (UACC-257 melanoma): 3.87 µM
- TGI (UACC-257 melanoma): 17.5 µM
- GI50 (HCT-116 colon): 3.45 µM
- TGI (HCT-116 colon): 17.4 µM
- GI50 (MDA-MB-468 breast): 1.72 µM
- TGI (MDA-MB-468 breast): 3.3 µM
- GI50 (SNB-19 CNS): 4.33 µM
- TGI (SNB-19 CNS): 19.8 µM
- GI50 (HS 578T breast): 2.84 µM
- TGI (HS 578T breast): 11.9 µM
- GI50 (SN12C renal): 2.52 µM
- TGI (SN12C renal): 7.97 µM
- GI50 (HCT-15 colon): 2.11 µM
- TGI (HCT-15 colon): 4.72 µM
- GI50 (HCC-2998 colon): 3.36 µM
- TGI (HCC-2998 colon): 12.3 µM
- GI50 (SNB-75 CNS): 1.87 µM
- TGI (SNB-75 CNS): 4.95 µM
- GI50 (A498 renal): 16.3 µM
- TGI (A498 renal): 51.7 µM
- GI50 (KM12 colon): 4.15 µM
- TGI (KM12 colon): 29.2 µM
- GI50 (SK-MEL-2 melanoma): 3.1 µM
- TGI (SK-MEL-2 melanoma): 10.4 µM
- GI50 (HOP-92 NSCLC): 3.66 µM
- TGI (HOP-92 NSCLC): 24.1 µM
- GI50 (HL-60(TB) leukemia): 1.92 µM
- TGI (HL-60(TB) leukemia): 4.55 µM
- GI50 (NCI-H522 lung): 2.52 µM
- TGI (NCI-H522 lung): 7.7 µM
- GI50 (ACHN renal): 2.53 µM
- TGI (ACHN renal): 7.05 µM
- GI50 (COLO 205 colon): 3.8 µM
- TGI (COLO 205 colon): 16.6 µM
- GI50 (RXF 393 renal): 1.75 µM
- TGI (RXF 393 renal): 3.65 µM
- GI50 (PC-3 prostate): 2.15 µM
- TGI (PC-3 prostate): 4.96 µM
- GI50 (TK-10 renal): 2.8 µM
- TGI (TK-10 renal): 7.63 µM
- GI50 (T-47D breast): 3.51 µM
- TGI (T-47D breast): 17.2 µM
- GI50 (NCI-H226 lung): 3.33 µM
- TGI (NCI-H226 lung): 14.9 µM
- GI50 (SK-MEL-5 melanoma): 3.55 µM
- TGI (SK-MEL-5 melanoma): 12.8 µM
- GI50 (SW-620 colon): 3.28 µM
- TGI (SW-620 colon): 12.1 µM
- GI50 (SF-295 CNS): 1.93 µM
- TGI (SF-295 CNS): 4.7 µM
- GI50 (BT-549 breast): 3.16 µM
- TGI (BT-549 breast): 7.25 µM
- GI50 (OVCAR-5 ovarian): 2.18 µM
- TGI (OVCAR-5 ovarian): 5.21 µM
